IC50 data for 15 compounds are collected here from patent US5104869A, “Renin inhibitors” (American Cyanamid Company, priority 1990, dated 1992).

pIC50: −log10 of the molar value.

The target in this assay is T1, human kidney renin (Homo sapiens, UniProt P00797).
T1 construct: Human renin was prepared from human kidney; from tissue; host or cells: human kidney
T1 sequence (P00797 67-406): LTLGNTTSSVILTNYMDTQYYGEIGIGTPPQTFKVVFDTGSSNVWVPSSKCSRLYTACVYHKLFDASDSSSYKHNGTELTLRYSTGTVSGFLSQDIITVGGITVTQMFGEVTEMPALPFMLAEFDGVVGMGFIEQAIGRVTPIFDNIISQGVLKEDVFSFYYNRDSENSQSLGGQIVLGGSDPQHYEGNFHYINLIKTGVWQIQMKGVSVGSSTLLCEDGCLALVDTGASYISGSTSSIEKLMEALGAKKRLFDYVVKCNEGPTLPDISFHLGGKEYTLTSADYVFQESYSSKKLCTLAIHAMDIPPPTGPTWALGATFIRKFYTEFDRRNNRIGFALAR
Nature of the assay: Radioimmunoassay Screen for Renin Inhibitors (in vitro angiotensin I generation, quantitated by radioimmunoassay). Type of assay: biochemical. Conditions: purified human plasma angiotensinogen, pH 6.0, one hour at 37° C., read-out: Renin Inhibiton IC50. How it is done:
The in vitro method for the screening of anti-renin compounds involves, first, angiotensin I generation, and second, the quantitation of the angiotensin I produced by radioimmunoassay.
The incubation medium consisted of 20 μl of purified human plasma angiotensinogen (1); 10 μl of human kidney renin (2); 5 μl of phenylmethylsulfonyl fluoride; 10 μl of disodium EDTA (10 mM); 10 μl of antirenin compound (5×10^-3, 5×10^-4, 5×10^-5) in dimethylformamide, or ethanol and a suitable amount of maleate buffer (77 mM, pH 6.0) to make a final volume of 500 μl. The reaction mixture was incubated for one hour at 37° C. and the enzymatic reaction was stopped by placing the tube in ice-cold water. The angiotensin I generated during the incubation was measured by a radioimmunoassay plasma renin activity kit (Clinical Assays, Inc.).
The incubation medium consisted of either 100 μl aliquots of the above reaction mixture or a standard amount of angiotensin I; 1000 μl of phosphate buffer (100 mM, pH 7.6) and 100 μl of (^125 I)angiotensinin a gamma-coat, tube. After three hours of incubation at room temperature, the tubes were decanted, and the radioactivity of each tube was determined in a gamma counter. Duplicate determinations were performed for each incubation. The results were expressed in ng of angiotensin I generated per ml of generation medium per hour of incubation (ng/AI/ml/hr).
(1) The human plasma angiotensinogen derived from the blood of a person receiving oral contraceptive pills was purified by chromatography on a pepstatinaminohexyl-agarose column.
(2) Human renin was prepared from human kidney.

As a reminder, the pIC50 is −log10 of the IC50, conventionally taken in molar units. For `CC(C)C[C@H](NC(=O)[C@@H](CC(=O)OC(C)(C)C)Cc1cccc2ccccc12)C(=O)N[C@@H](CC1CCCCC1)[C@@H](O)c1ccccn1`, the pIC50 is 6.80.
In the case of `CC(C)C[C@H](NC(=O)[C@@H](CC(=O)N1CCOCC1)Cc1cccc2ccccc12)C(=O)N[C@@H](CC1CCCCC1)[C@@H](O)c1ccccn1`, the pIC50 is 7.11.
For the compound `CC(C)C[C@H](NC(=O)[C@@H](CC(=O)NCCN1CCOCC1)Cc1cccc2ccccc12)C(=O)N[C@@H](CC(C)C)[C@@H](O)c1nccs1`, the pIC50 was 6.40.
For `CC(C)C[C@H](NC(=O)[C@@H](CC(=O)NCCN1CCCCC1)Cc1cccc2ccccc12)C(=O)N[C@@H](CC(C)C)[C@@H](O)c1nccs1` the value was 6.19; for `CC(C)C[C@H](NC(=O)[C@@H](CC(=O)OC(C)(C)C)Cc1ccccc1)C(=O)N[C@@H](CC(C)C)[C@@H](O)c1nccs1`, 5.19.
Turning to `CC(C)(C)NC(=O)C[C@@H](Cc1cccc2ccccc12)C(=O)N[C@@H](Cc1cnc[nH]1)C(=O)N[C@@H](CC1CCCCC1)[C@@H](O)c1nccs1`, the pIC50 was 5.15.
Next, `CC(C)C[C@H](NC(=O)[C@H](Cc1ccccc1)OC(=O)N1CCSCC1)C(=O)N[C@@H](CC1CCCCC1)[C@@H](O)c1cccs1`: 6.30; `CC(C)C[C@H](NC(=O)[C@H](Cc1c[nH]cn1)NC(=O)[C@@H](CC(=O)NC(C)(C)C)Cc1ccccc1)[C@@H](O)c1nccs1`: 4.19; `CC(C)C[C@H](NC(=O)[C@@H](CC(=O)NCCCN1CCCC1=O)Cc1cccc2ccccc12)C(=O)N[C@@H](CC(C)C)[C@@H](O)c1nccs1`: 7.13.
In the case of `COc1cc(C[C@H](CC(=O)O)C(=O)N[C@@H](CC(C)C)C(=O)N[C@@H](CC(C)C)[C@@H](O)c2nccs2)cc(OC)c1OC`, the negative logarithm of the IC50 (pIC50) is 5.22.
Regarding `CC(=O)N1CCN(C(=O)O[C@@H](Cc2ccccc2)C(=O)N[C@@H](CC(C)C)C(=O)N[C@@H](CC2CCCCC2)[C@@H](O)c2ccco2)CC1`, the pIC50 is 7.38.
With `CC(C)(C)OC(=O)C[C@@H](Cc1cccc2ccccc12)C(=O)N[C@@H](Cc1cnc[nH]1)C(=O)N[C@@H](CC1CCCCC1)[C@@H](O)c1nccs1`, the pIC50 was 6.52.
Turning to `CC(C)C[C@H](NC(=O)[C@@H](CC(=O)NCCOc1ccccn1)Cc1cccc2ccccc12)C(=O)N[C@@H](CC1CCCCC1)[C@@H](O)c1ccccn1`, the negative logarithm of the IC50 (pIC50) was 6.77.
With `O=C(C[C@@H](Cc1cccc2ccccc12)C(=O)N[C@@H](Cc1cnc[nH]1)C(=O)N[C@@H](CC1CCCCC1)[C@@H](O)c1nccs1)NCCOc1ccccn1`, the pIC50 was 6.24.
As for `CC(C)C[C@H](NC(=O)[C@@H](CC(=O)OC(C)(C)C)Cc1cccs1)C(=O)N[C@@H](CC(C)C)[C@@H](O)c1nccs1`, the pIC50 was 4.00.
